These results are taken from patent US11976083B2, “Inhibitors of peptidylarginine deiminases” (Gilead Sciences, Inc., priority 2020, dated 2024).

For this assay, the target named is T1, human PAD4 (Homo sapiens, UniProt Q9UM07).
T1 construct: human PAD4 (NM_012387), A2-P663, was PCR amplified; His-SUMO (N, cleaved yes); made in house; host or cells: E. coli BL21(DE3)
As to the kind of experiment: In vitro PAD4 BAEE biochemical assay. The conditions noted are these: BAEE substrate 3 mM, 5 nM PAD4, 2 mM calcium chloride; geometric mean of multiple experiments. In short, it runs like this:
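Recombinant PAD4 (5 nM final) with 2 mM CaCl2 was preincubated with compound for 30 min at 25 °C in MOPS pH 7.6 buffer with DTT, then reacted with 3 mM BAEE for 2 h at 25 °C. Released ammonia was detected fluorimetrically with o-phthalaldehyde/DTT; IC50 from four-parameter fit, geometric mean of experiments.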

T1 sequence (Q9UM07 2-663): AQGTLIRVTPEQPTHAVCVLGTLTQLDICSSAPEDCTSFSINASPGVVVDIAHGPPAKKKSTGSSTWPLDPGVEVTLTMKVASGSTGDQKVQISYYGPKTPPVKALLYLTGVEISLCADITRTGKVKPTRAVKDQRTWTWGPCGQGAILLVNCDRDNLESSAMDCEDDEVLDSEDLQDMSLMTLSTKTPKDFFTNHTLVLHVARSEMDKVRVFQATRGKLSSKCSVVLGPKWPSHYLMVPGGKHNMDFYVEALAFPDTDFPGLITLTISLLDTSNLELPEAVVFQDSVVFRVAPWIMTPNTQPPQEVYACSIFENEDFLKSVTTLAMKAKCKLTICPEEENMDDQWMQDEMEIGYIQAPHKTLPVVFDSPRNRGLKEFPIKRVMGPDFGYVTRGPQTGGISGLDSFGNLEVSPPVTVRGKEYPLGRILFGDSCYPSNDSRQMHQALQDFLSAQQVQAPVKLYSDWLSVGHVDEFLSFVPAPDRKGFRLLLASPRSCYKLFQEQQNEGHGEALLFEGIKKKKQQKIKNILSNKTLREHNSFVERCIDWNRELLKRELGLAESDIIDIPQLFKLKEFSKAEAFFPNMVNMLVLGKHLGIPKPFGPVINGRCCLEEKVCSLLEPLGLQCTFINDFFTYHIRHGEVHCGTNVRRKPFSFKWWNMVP

What is called IC50 is the concentration needed to halve the response being measured. In the case of `COc1cc(C(=O)N2CC[C@@H](O)[C@@H](N)C2)cc2nc(-c3cc4ccc5nc4n3CCCCCCC(C)(C)C(=O)N[C@@H]5C)n(C)c12` [Example 195, (11~{R})-17-[5-[(3~{S},4~{R})-3-amino-4-hydroxy-piperidine-1-carbonyl]-7-methoxy-1-methyl-benzimidazol-2-yl]-8,8,11-trimethyl-1,10,19-triazatricyclo[10.5.2.0^{15,18}]nonadeca-12(19),13,15(18),16-tetraen-9-one], the IC50 came to 0.056 µM.
Regarding `COCCn1c(-c2cc3ccc4nc3n2CCCCC[C@@H]2C[C@H]2C(=O)N[C@@H]4C)nc2cc(C(=O)N3CCC[C@@H](N)C3)cc(OC)c21` [Example 433, (2~{R},5~{R},7~{R})-14-[5-[(3~{R})-3-aminopiperidine-1-carbonyl]-7-methoxy-1-(2-methoxyethyl)benzimidazol-2-yl]-2-methyl-3,13,19-triazatetracyclo[11.5.2.0^{5,7}.0^{16,20}] icosa-1(19),14,16(20),17-tetraen-4-one], the 50% inhibitory concentration (IC50) was 0.046 µM.
To `C[C@H]1NC(=O)C(C)(C)CCCCCCn2c(-c3nc4cc(C(=O)N[C@H]5CNCC[C@@H]5F)cc(Cl)c4n3C)cc3ccc1nc32` [Example 501, 7-chloro-~{N}-[(3~ {S},4~{S})-4-fluoro-3-piperidyl]-1-methyl-2-[(11~{R})-8,8,11-trimethyl-9-oxo-1,10,19-triazatricyclo[10.5.2.0^{15,18}]nonadeca-12(19),13,15(18), 16-tetraen-17-yl] benzimidazole-5-carboxamide] belongs 0.271 µM; to `COc1cc(C(=O)N2C[C@H](N)[C@@H]3CC[C@H]2C3)cc2nc(-c3cc4ccc5nc4n3CCCCCc3cc(F)ccc3C(=O)N[C@@H]5C)n(C)c12` [Example 900, (2~{R})-17-[5-[(1~{S),4~{R}, 5~{R})-4-amino-2-azabicyclo [3.2.1]octane-2-carbonyl]-7-methoxy-1-methyl-benzimidazol-2-yl]-8-fluoro-2-methyl-3,16,22-triazatetracyclo[14.5.2.0^ {5,10}.0^{19,23}]tricosa-1(22),5(10),6,8,17,19(23),20-heptaen-4-one], 0.028 µM.
Regarding `COc1cc(C(=O)N[C@H]2CNCC[C@@H]2F)cc2nc(-c3cc4ccc5nc4n3CCC/C=C/c3c(noc3C)C(=O)N[C@@H]5C)n(C)c12` [Example 399, 2-[(2~{R},10~{E})-2,8-dimethyl-4-oxo-7-oxa-3,6,15,21-tetrazatetracyclo[13.5.2.0^{5,9}.0^{18,22}]docosa-1(21),5,8,10,16,18(22),19-heptaen-16-yl]-~{N}-[(3~{S},4~{S})-4-fluoro-3-piperidyl]-7-methoxy-1-methyl-benzimidazole-5-carboxamide], the IC50 amounted to 0.086 µM.
As for `COc1cc(C(=O)N2C[C@H]3CC[C@@H]2[C@@H]3N)cc2nc(-c3cc4ccc5nc4n3CCCCCC[C@](C)(C(F)(F)F)C(=O)N[C@@H]5C)n(C)c12` [Example 724, (8~{S},11~{R})-17-[5-[(1~{R},4~{R},7~{R})-7-amino-2-azabicyclo[2.2.1]heptane-2-carbonyl]-7-methoxy-1-methyl-benzimidazol-2-yl]-8,11-dimethyl-8-(trifluoromethyl)-1,10,19-triazatricyclo [10.5.2.0^{15,18}]nonadeca-12(19),13,15(18),16-tetraen-9-one], the figure is 0.094 µM; as for `COc1cc(C(=O)N2CCC[C@@H](N)C2)cc2nc(-c3cc4ccc5nc4n3CCCCCC(C)(C)C(=O)N[C@@H]5C)n(C)c12` [Example 58, (10~{R})-16-[5-[(3~{R})-3-aminopiperidine-1-carbonyl]-7-methoxy-1-methyl-benzimidazol-2-yl]-7,7,10-trimethyl-1,9,18-triazatricyclo[9.5.2.0^{14,17}]octadeca-11(18),12,14(17),15-tetraen-8-one], 0.077 µM.
For `C[C@H]1NC(=O)C(C)(C)OCCCCCn2c(-c3nc4cc(C(=O)N[C@H]5CNCC[C@@H]5F)c(F)cc4n3C3CC3)cc3ccc1nc32` [Example 540, 1-cyclopropyl-6-fluoro-~{N}-[(3~{S},4~{S})-4-fluoro-3-piperidyl]-2-[(11~{R})-8,8,11-trimethyl-9-oxo-7-oxa-1,10,19-triazatricyclo[10.5.2.0^ {15,18}]nonadeca-12(19),13,15(18),16-tetraen-17-yl] benzimidazole-5-carboxamide], the IC50 was 0.09 µM.
As for `COc1cc(C(=O)N2[C@H]3CC[C@@H]2[C@H](N)C3)cc2nc(-c3cc4ccc5nc4n3CCCCCCCCC(=O)N5C)c(C)n12` [Example 127, 17-[7-[(1˜{R},2˜{R},4˜{S})-2-amino-7-azabicyclo[2.2.1]heptane-7-carbonyl]-5-methoxy-3-methyl-imidazo[1,2-a]pyridin-2-yl]-11-methyl-1,11,19-triazatricyclo[10.5.2.0^{15,18}]nonadeca-12(19),13,15(18),16-tetraen-10-one], the figure is 0.031 µM.
As for `C[C@H]1NC(=O)[C@H]2[C@H](CCCCCn3c(-c4nc5cc(C(=O)N6C[C@H](N)[C@@H]7CC[C@H]6C7)cc(F)c5n4C4CC4)cc4ccc1nc43)C2(F)F` [Example 775, (2~{R},5~{R},7~{S})-14-[5-[(1~{S},4~{R},5~{R})-4-amino-2-azabicyclo[3.2.1]octane-2-carbonyl]-1-cyclopropyl-7-fluoro-benzimidazol-2-yl]-6,6-difluoro-2-methyl-3,13,19-triazatetracyclo[11.5.2.0^ {5,7).0^{16,20}]icosa-1(19),14,16(20),17-tetraen-4-one], the figure is 0.029 µM.
Consider `C[C@H]1NC(=O)[C@@H]2C[C@H]2CCCCCn2c(-c3nc4cc(C(=O)N[C@H]5CNCC[C@@H]5F)c(F)c(F)c4n3C3CC3)cc3ccc1nc32` (single isomer, unassigned) [Example 275, 1-cyclopropyl-6,7-difluoro-˜{N}-[(3˜{S},4˜{S})-4-fluoro-3-piperidyl]-2-[(2˜{R},5˜{R},7˜{R})-2-methyl-4-oxo-3,13,19-triazatetracyclo[11.5.2.0^{5,7}.0^{16,20}]icosa-1(19),14,16(20),17-tetraen-14-yl]benzimidazole-5-carboxamide], for which the IC50 was 0.024 µM.
To `COc1cc(C(=O)N2[C@H]3CC[C@@H]2[C@H](N)C3)cc2nc(-c3cc4ccc5nc4n3CCCCC[C@@H](OC)C(C)(C)C(=O)N[C@@H]5C)n(C)c12` [Example 219, (7~{R},11~{R})-17-[5-[(1~{R},2~{R},4~{S})-2-amino-7-azabicyclo[2.2.1]heptane-7-carbonyl]-7-methoxy-1-methyl-benzimidazol-2-yl]-7-methoxy-8,8,11-trimethyl-1,10,19-triazatricyclo[10.5.2.0^{15,18}]nonadeca-12(19),13,15(18),16-tetraen-9-one] belongs 0.072 µM; to `COc1cc(C(=O)N2[C@H]3CC[C@@H]2[C@H](N)C3)cc2nc(-c3cc4ccc5nc4n3CCCCCCCC(=O)Nc3ncccc3-5)n(C)c12` [Example 89, 18-[5-[(1~{R},2~{R},4~{S})-2-amino-7-azabicyclo[2.2.1]heptane-7-carbonyl]-7-methoxy-1-methyl-benzimidazol-2-yl]-6,8,17,23-tetrazatetracyclo[15.5.2.0^{2,7}.0^{20,24}] tetracosa-1(23),2,4,6,18,20(24),21-heptaen-9-one], 0.113 µM.
